Assays:
[1] = Antioxidant activity assessed as reactive oxygen species scavenging activity; type: physicochemical
Hepatocyte = experiment: Hepatoprotective activity against tert-butyl hydroperoxide-induced oxidative stress in Wistar rat hepatocytes assessed as cell viability at 60 ug/ml by tryphan blue exclusion method (reference value: 74%); type: functional; conditions: for viability at 60 µg/mL: read-out: Activity

Row | Compound | Activity [1] | viability at 60 µg/mL (Hepatocyte) [%] | Activity (Hepatocyte) [%]
1 | O=c1c(O[C@@H]2O[C@H](CO)[C@H](O)[C@H](O)[C@H]2O)c(-c2ccc(O)cc2)oc2cc(O)cc(O)c12 [TRIFOLIN] | Active | 191 | –
2 | C[C@@H]1O[C@@H](OC[C@H]2O[C@@H](Oc3c(-c4ccc(O)c(O)c4)oc4cc(O)cc(O)c4c3=O)[C@H](O)[C@@H](O)[C@H]2O)[C@H](O)[C@H](O)[C@H]1O | Active | 159 | –
3 | C[C@@H]1O[C@@H](OC[C@H]2O[C@@H](Oc3c(-c4ccc(O)c(O)c4)oc4cc(O)cc(O)c4c3=O)[C@H](O)[C@@H](O)[C@@H]2O)[C@H](O)[C@H](O)[C@H]1O [RUTIN] | Active | 168 | –
4 | C[C@@H]1O[C@@H](OC[C@H]2O[C@@H](Oc3c(-c4ccc(O)c(O)c4)oc4cc(O)cc(O)c4c3=O)[C@H](O[C@@H]3O[C@@H](C)[C@H](O)[C@@H](O)[C@H]3O)[C@@H](O)[C@H]2O)[C@H](O)[C@H](O)[C@H]1O | Active | 195 | –
5 | C[C@@H]1O[C@@H](OC[C@H]2O[C@@H](Oc3c(-c4ccc(O)c(O)c4)oc4cc(O[C@@H]5O[C@H](CO)[C@@H](O)[C@H](O)[C@H]5O)cc(O)c4c3=O)[C@H](O[C@@H]3O[C@@H](C)[C@H](O)[C@@H](O)[C@H]3O)[C@@H](O)[C@H]2O)[C@H](O)[C@H](O)[C@H]1O | Active | 186 | –
6 | SILYMARIN [listing 1 of 2 here] | – | – | 182
7 | O=c1cc(-c2ccc(O)cc2)oc2cc(O[C@@H]3O[C@H](CO)[C@@H](O)[C@H](O)[C@H]3O)cc(O)c12 [APIGETRIN] | Active | 177 | –
8 | SILYMARIN [listing 2 of 2 here] | Active | – | –
9 | C[C@@H]1O[C@@H](O[C@H]2[C@H](Oc3c(-c4ccc(O)cc4)oc4cc(O)cc(O)c4c3=O)O[C@H](COC(=O)CC(C)(O)CC(=O)O)[C@H](O)[C@@H]2O)[C@H](O)[C@H](O)[C@H]1O (stereo partly specified) | Active | 155 | –
10 | C[C@@H]1O[C@@H](OC[C@H]2O[C@@H](Oc3c(-c4ccc(O)cc4)oc4c(CN5CCCC(O)C5=O)c(O)cc(O)c4c3=O)[C@H](O[C@@H]3O[C@@H](C)[C@H](O)[C@@H](O)[C@H]3O)[C@@H](O)[C@H]2O)[C@H](O)[C@H](O)[C@H]1O (stereo partly specified) | Active | 177 | –
11 | C[C@@H]1O[C@@H](OC[C@H]2O[C@@H](Oc3c(-c4ccc(O)cc4)oc4cc(O[C@@H]5O[C@H](CO)[C@@H](O)[C@H](O)[C@H]5O)cc(O)c4c3=O)[C@H](O[C@@H]3O[C@@H](C)[C@H](O)[C@@H](O)[C@H]3O)[C@@H](O)[C@H]2O)[C@H](O)[C@H](O)[C@H]1O | Active | 164 | –
12 | C[C@@H]1O[C@@H](OC[C@H]2O[C@@H](Oc3c(-c4ccc(O)c(O)c4)oc4c(CN5CCCC(O)C5=O)c(O)cc(O)c4c3=O)[C@H](O[C@@H]3O[C@@H](C)[C@H](O)[C@@H](O)[C@H]3O)[C@@H](O)[C@H]2O)[C@H](O)[C@H](O)[C@H]1O (stereo partly specified) | Active | 159 | –
13 | C[C@@H]1O[C@@H](OC[C@H]2O[C@@H](Oc3c(-c4ccc(O)cc4)oc4cc(O)cc(O)c4c3=O)[C@H](O[C@@H]3O[C@@H](C)[C@H](O)[C@@H](O)[C@H]3O)[C@@H](O)[C@H]2O)[C@H](O)[C@H](O)[C@H]1O | Active | 168 | –
14 | C[C@@H]1O[C@@H](O[C@H]2[C@H](Oc3c(-c4ccc(O)c(O)c4)oc4cc(O)cc(O)c4c3=O)O[C@H](COC(=O)CC(C)(O)CC(=O)O)[C@H](O)[C@@H]2O)[C@H](O)[C@H](O)[C@H]1O (stereo partly specified) | Active | 182 | –
